Tested on: endothelial "ionic pump"
Experiment: pump function tested by pachymetry of transplanted corneas after exposure to ouabain
Design: species or system human
Conditions: 200 μM ouabain
Method: Corneas from donors (52-80 years old) were obtained from an eye bank. Descemet's membrane was stripped and endothelial cells were removed by mild EDTA treatment. Cells, cultured in the preferred formulation of the culture medium, were identified by RT-PCR of collagen type VIII and keratin-12 and by morphology. Cells (2.5×10^5) were seeded onto denuded Descemet's membrane from a second donor cornea. The cornea was incubated in culture for up to 1 month. Cell-cell contact of transplanted cells was evaluated by ZO-1 staining. Morphology and ultrastructure were examined by transmission electron microscopy. Pump function was tested by pachymetry after exposure to 200 μM ouabain. Cultured cells were identified as corneal endothelium by characteristic mRNA expression and morphology. The success rate of primary cultures, obtained from corneas stored <5 days after death, was about 99%. […] With time, cell-substrate adhesion, cell-cell contact, and lateral interdigitation increased, and the cells rearranged to form a monolayer. When the endothelium is functional, it draws water out of the corneal stroma, resulting in a thin cornea. Ouabain, a cardiac glycoside, inhibits the function of the endothelial “ionic pump”, causing an increase in corneal thickness. […] Referring to FIG. 4, pachymetry of transplanted corneas after ouabain treatment is graphically depicted. […]

Structure (SMILES): C[C@@H]1O[C@@H](O[C@H]2C[C@@H](O)[C@]3(CO)[C@H]4[C@H](O)C[C@]5(C)[C@@H](C6=CC(=O)OC6)CC[C@]5(O)[C@@H]4CC[C@]3(O)C2)[C@H](O)[C@H](O)[C@H]1O [ouabain]
- period over which corneal thickness increased to maximum (transplanted corneas after 14 days in organ culture): 2 to 3 h
- corneal thickness measured by pachymetry (FIG. 4) (transplants maintained 14 days in organ culture, 5 corneas): increased to a level equal to that of corneas denuded of endothelium
